Test results taken from paper PMC9814587, “Actinomycetes-derived imine reductases with a preference towards bulky amine substrates” (Communications Chemistry, 2022).

Assays:
AspRedAm = biological target: T1, AspRedAm (Aspergillus oryzae, UniProt Q2TW47); assay: reductive amination, HPLC or LC-MS conversion; type: biochemical; settings: 5 mM each, NADP+/GDH/glucose recycling, pH 7.0
T1 construct: gene AO090010000708; N-terminal His tag, expressed in E. coli BL21(DE3), Ni-NTA purified; dimer
T1 sequence (Q2TW47 1-295): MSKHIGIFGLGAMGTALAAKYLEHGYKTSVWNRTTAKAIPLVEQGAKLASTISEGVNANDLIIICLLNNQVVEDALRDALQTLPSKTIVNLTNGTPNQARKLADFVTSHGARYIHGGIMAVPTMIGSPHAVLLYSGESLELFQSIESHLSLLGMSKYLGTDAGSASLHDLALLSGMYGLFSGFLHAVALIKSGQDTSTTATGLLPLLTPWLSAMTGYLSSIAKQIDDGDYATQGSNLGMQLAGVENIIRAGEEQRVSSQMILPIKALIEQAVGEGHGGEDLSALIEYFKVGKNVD

IR-G02 = biological target: T2, IR-G02 (Streptomyces albidoflavus, UniProt Z9MF94CC36); assay: X-ray crystallography; type: binding; settings: co-crystallised with 10 eq NADP+, pH 7.5, 18 °C
T2 construct: N-terminal His6 tag, expressed in E. coli BL21(DE3), Ni-NTA and SEC purified; homodimer with active site at the interface
T2 sequence (Z9MF94CC36 21-319): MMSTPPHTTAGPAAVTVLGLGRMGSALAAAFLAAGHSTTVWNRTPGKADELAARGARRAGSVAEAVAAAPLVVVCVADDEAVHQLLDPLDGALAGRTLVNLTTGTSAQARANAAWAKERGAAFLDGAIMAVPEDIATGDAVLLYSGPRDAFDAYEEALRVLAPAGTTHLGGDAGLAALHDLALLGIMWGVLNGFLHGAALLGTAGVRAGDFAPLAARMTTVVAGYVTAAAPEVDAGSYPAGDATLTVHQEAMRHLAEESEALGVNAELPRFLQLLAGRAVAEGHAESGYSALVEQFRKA

[1] = biological target: IR-G02 (imine reductase from Streptomyces albidoflavus) (Streptomyces albidoflavus); assay: crystal structure; apo IR-G02; sitting-drop vapour diffusion at 18 °C; 0.2 M ammonium acetate, 0.1 M Bis-Tris 5.5, 25 % w/v PEG 3350; protein 20 mg ml^-1

NC1CC1 [A, cyclopropylamine] gave a conversion (AspRedAm; amine donor with cyclohexanone) of over 90%.
O=C1CCCCC1 [compound 1, cyclohexanone] was tested, and the conversion (AspRedAm; carbonyl donor with cyclopropylamine) was over 90%.
For NC(=O)c1ccc[n+]([C@@H]2O[C@H](COP(=O)(O)OP(=O)(O)OC[C@H]3O[C@@H](n4cnc5c(N)ncnc54)[C@H](OP(=O)(O)O)[C@@H]3O)[C@@H](O)[C@H]2O)c1 [NADP^+], the X-ray crystallography (IR-G02) was “NADP^+ complex of IR-G02 (PDB ID: 7XR5)”.
“IR-G02 (imine reductase from Streptomyces albidoflavus) (enzyme)” showed a stoichiometry N [1] of 2.
